Results taken from patent US20070122422A1, “Sodium-independent small neutral amino acid transporter transporting L- and D- amino acids” (Japan Science and Technology Corporation, priority 2000, published 2007).
“Also recorded” adds a separate entry of the source.

What was measured:
[1] = target: T1, asc-1 of mouse (co-expressed with 4F2hc of mouse) (Mus musculus, UniProt P63115); experiment: Inhibition of 14C-alanine incorporation by added amino acids and analogs in oocytes co-expressing asc-1 and 4F2hc; assay type: cell-based; details: 14C-alanine 50 μM; 5 mM non-labeled compound; Na+-free uptake solution
T1 construct: expressed in transfected cells; host or cells: Xenopus oocytes injected with cRNA
T1 sequence (P63115 1-530): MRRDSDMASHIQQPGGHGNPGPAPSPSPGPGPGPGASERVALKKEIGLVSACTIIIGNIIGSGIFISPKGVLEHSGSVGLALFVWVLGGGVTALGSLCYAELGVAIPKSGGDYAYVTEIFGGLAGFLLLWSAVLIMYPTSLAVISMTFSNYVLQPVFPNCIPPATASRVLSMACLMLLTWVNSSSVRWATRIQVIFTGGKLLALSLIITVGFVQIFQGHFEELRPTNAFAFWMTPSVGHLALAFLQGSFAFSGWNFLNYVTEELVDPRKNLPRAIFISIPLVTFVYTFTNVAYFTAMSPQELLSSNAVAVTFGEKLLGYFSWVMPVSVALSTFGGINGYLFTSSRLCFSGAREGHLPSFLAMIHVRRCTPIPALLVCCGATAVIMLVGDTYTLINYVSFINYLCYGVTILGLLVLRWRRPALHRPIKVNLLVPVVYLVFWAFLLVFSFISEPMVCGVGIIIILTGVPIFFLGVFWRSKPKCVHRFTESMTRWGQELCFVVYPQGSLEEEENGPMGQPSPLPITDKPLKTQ
T1 sequence (P10852 1-526 partner): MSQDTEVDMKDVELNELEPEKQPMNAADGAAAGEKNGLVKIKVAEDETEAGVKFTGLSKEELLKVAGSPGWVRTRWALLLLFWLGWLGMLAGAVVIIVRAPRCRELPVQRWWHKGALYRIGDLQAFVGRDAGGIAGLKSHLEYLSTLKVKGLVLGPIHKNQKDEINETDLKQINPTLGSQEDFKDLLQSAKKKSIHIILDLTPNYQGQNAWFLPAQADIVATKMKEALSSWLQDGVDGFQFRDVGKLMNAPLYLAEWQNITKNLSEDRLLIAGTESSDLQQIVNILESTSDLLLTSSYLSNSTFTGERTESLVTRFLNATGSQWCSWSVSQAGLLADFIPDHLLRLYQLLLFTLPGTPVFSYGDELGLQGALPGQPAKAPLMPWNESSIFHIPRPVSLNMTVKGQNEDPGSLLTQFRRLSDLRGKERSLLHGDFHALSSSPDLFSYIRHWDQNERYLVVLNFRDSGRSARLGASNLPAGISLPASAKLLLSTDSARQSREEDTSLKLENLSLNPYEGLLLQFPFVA
Description: Into oocytes were injected 12 ng of asc-1 gene cRNA of mouse, 13 ng of 4F2hc gene cRNA of mouse or 12 ng asc-1 gene cRNA of mouse/13 ng of 4F2hc gene cRNA of mouse to express followed by incubating for 3 days. […] Thus, the oocytes were allowed to stand for 30 minutes in a Na^+-free uptake solution [100 mM choline chloride, 2 mM potassium chloride, 1.8 mM calcium chloride, 1 mM magnesium chloride, 5 mM HEPES; pH 7.4] containing ^14C-alanine (100 μM) as a substrate and the rate of the substrate incorporated into the cells was measured by way of counting the radioactivity incorporated thereinto.
In an experiment of incorporation of alanine by oocytes into which both asc-1 gene cRNA of mouse and 4F2hc gene cRNA of mouse were injected, influence of addition of various amino acid and analogs thereof was investigated.
In an experiment of incorporation of alanine, a method according to that mentioned in the above Example 2(1) was carried out using oocytes into which both asc-1 gene cRNA of mouse and 4F2hc gene cRNA of mouse were injected. Here, a Na^+-free uptake solution was used and incorporation of ^14C-alanine (50 μM) was measured in the presence and absence of 5 mM of various compounds (non-labeled).

[2] = target: T1, asc-1 of mouse (co-expressed with 4F2hc of mouse); experiment: Release of preloaded 14C-alanine from oocytes co-expressing asc-1 and 4F2hc on extracellular addition of compound; assay type: cell-based; details: for increase in the release of preloaded 14C-alanine: 100 μM compound added to Na+-free uptake solution, room temperature
Description: (§1) Release of a preloaded ^14C-alanine mediated by asc-1 was checked in the oocytes into which both asc-1 gene cRNA and 4F2hc gene cRNA of mouse were injected together. ^14C-Alanine (−3nCi) of 100 μM in an amount of 100 nl was injected into the oocytes into which both asc-1 gene cRNA and 4F2hc gene cRNA of mouse were injected together, washed with an ice-cooled Na^+-free uptake solution containing no alanine and transferred to a Na^+-free uptake solution to which alanine (100 μM) was added or not added at room temperature (18° C.-22° C.) and the amount of ^14C-alanine released outside the cells was measured.
In oocytes into which cRNA of asc-1 gene and cRNA of 4F2hc gene of mouse were injected together, release of preloaded ^14C-alanine mediated by asc-1 was investigated whereupon it was checked whether the compound which inhibited the incorporation of ^14C-alanine mediated by asc-1 was a substrate of asc-1.
as §1, with “^14C-Alanine” for “Release of a preloaded ^14C-alanine mediated by asc-1 was checked in the oocytes into which both asc-1 gene cRNA and 4F2hc gene cRNA of mouse were injected together. ^14C-Alanine”, “which amino acid or amino acid analog” for “which alanine”
Black bars in FIG. 18 are the case where there were used oocytes into which cRNA of mouse asc-1 gene and cRNA of mouse 4F2hc gene were injected while white bars are the case where there were used oocytes into which water was injected instead of cRNA as a control.

Compound: C[C@H](N)C(=O)O [L-Alanine]
- inhibition of incorporation of 14C-alanine mediated by asc-1 [1]: particularly strongly inhibited
- increase in the release of preloaded 14C-alanine [2]: significantly increased; also recorded: high increase
- release of 14C-alanine without alanine outside the cells ([2]; alanine not added to Na+-free uptake solution): significant release

Compound: N[C@@H](CO)C(=O)O [L-Serine]
- inhibition of incorporation of 14C-alanine mediated by asc-1 [1]: particularly strongly inhibited
- increase in the release of preloaded 14C-alanine [2]: high increase
